Laboratory results: PubChem BioAssay (NCI)
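Each compound was tested at five concentrations against cells in 96-well plates for 48 hours. The concentration for 50% growth inhibition is given as GI50. TGI is the concentration that stops growth completely.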

Key:
Experiment in all cases: inhibition of tumour cell growth, NCI panel, 48 h
OVCAR-4 ovarian = system: OVCAR-4 ovarian
HCT-15 colon = system: HCT-15 colon
NCI-H226 lung = system: NCI-H226 lung
HT29 colon = system: HT29 colon
HS 578T breast = system: HS 578T breast
HCC-2998 colon = system: HCC-2998 colon
K-562 leukemia = system: K-562 leukemia
SR leukemia = system: SR leukemia
SK-MEL-5 melanoma = system: SK-MEL-5 melanoma
HOP-92 NSCLC = system: HOP-92 NSCLC
UACC-257 melanoma = system: UACC-257 melanoma
786-0 renal = system: 786-0 renal
MCF7 breast = system: MCF7 breast
OVCAR-5 ovarian = system: OVCAR-5 ovarian
A549 NSCLC = system: A549 NSCLC
PC-3 prostate = system: PC-3 prostate
NCI-H23 lung = system: NCI-H23 lung
RPMI-8226 leukemia = system: RPMI-8226 leukemia
MOLT-4 leukemia = system: MOLT-4 leukemia
EKVX NSCLC = system: EKVX NSCLC
SN12C renal = system: SN12C renal
TK-10 renal = system: TK-10 renal
SW-620 colon = system: SW-620 colon
HOP-62 NSCLC = system: HOP-62 NSCLC
LOX IMVI melanoma = system: LOX IMVI melanoma
CCRF-CEM leukemia = system: CCRF-CEM leukemia

In the case of Nc1ccc2ccc(NS(=O)(=O)N3CCCCC3)cc2c1, the GI50 (OVCAR-4 ovarian) is reported as 1820 nM, the TGI (OVCAR-4 ovarian) is reported as greater than 100000 nM and the GI50 (HCT-15 colon) is reported as 440 nM. For the same compound, the TGI (HCT-15 colon) was greater than 100000 nM, the GI50 (NCI-H226 lung) was 2560 nM and the TGI (NCI-H226 lung) was greater than 100000 nM. For the same compound, the GI50 (HT29 colon) was 400 nM, the TGI (HT29 colon) was greater than 100000 nM and the GI50 (HS 578T breast) was 396 nM. The TGI (HS 578T breast) was 5990 nM, the GI50 (HCC-2998 colon) was 707 nM and the TGI (HCC-2998 colon) was greater than 24800 nM. The GI50 (K-562 leukemia) was 354 nM, the TGI (K-562 leukemia) was greater than 100000 nM and the GI50 (SR leukemia) was 215 nM. It also gave a TGI (SR leukemia) greater than 100000 nM, a GI50 (SK-MEL-5 melanoma) of 285 nM and a TGI (SK-MEL-5 melanoma) of 4520 nM. It also gave a GI50 (HOP-92 NSCLC) of 532 nM, a TGI (HOP-92 NSCLC) of 73100 nM and a GI50 (UACC-257 melanoma) of 12900 nM. The TGI (UACC-257 melanoma) was greater than 100000 nM, the GI50 (786-0 renal) was 5320 nM and the TGI (786-0 renal) was greater than 100000 nM. For the same compound, the GI50 (MCF7 breast) was 295 nM, the TGI (MCF7 breast) was greater than 100000 nM and the TGI (OVCAR-5 ovarian) was greater than 100000 nM. It also gave a GI50 (A549 NSCLC) of 1000 nM, a TGI (A549 NSCLC) greater than 46000 nM and a GI50 (PC-3 prostate) of 1280 nM. It also gave a TGI (PC-3 prostate) greater than 100000 nM, a GI50 (NCI-H23 lung) of 1530 nM and a TGI (NCI-H23 lung) greater than 63800 nM. For the same compound, the GI50 (RPMI-8226 leukemia) was 507 nM, the TGI (RPMI-8226 leukemia) was greater than 49600 nM and the GI50 (MOLT-4 leukemia) was 524 nM. The TGI (MOLT-4 leukemia) was greater than 100000 nM, the GI50 (EKVX NSCLC) was 2050 nM and the TGI (EKVX NSCLC) was greater than 100000 nM. For the same compound, the GI50 (SN12C renal) was 653 nM, the TGI (SN12C renal) was greater than 100000 nM and the GI50 (TK-10 renal) was 3150 nM. The TGI (TK-10 renal) was greater than 100000 nM, the GI50 (SW-620 colon) was 336 nM and the TGI (SW-620 colon) was greater than 100000 nM. For the same compound, the TGI (HOP-62 NSCLC) was greater than 100000 nM, the GI50 (LOX IMVI melanoma) was 1030 nM and the TGI (LOX IMVI melanoma) was greater than 100000 nM. The GI50 (CCRF-CEM leukemia) was 460 nM.
